For 18 compounds, IC50 results are on record in patent US20210070748A1, “INHIBITORS OF BRUTONS TYROSINE KINASE” (Pharmacyclics LLC, priority 2015, published 2021).

Bounds are passed on as bounds.

What all share (type): biochemical
For one test, the target named is T1, ITK (Homo sapiens, UniProt Q08881).
T1 sequence (Q08881 1-620): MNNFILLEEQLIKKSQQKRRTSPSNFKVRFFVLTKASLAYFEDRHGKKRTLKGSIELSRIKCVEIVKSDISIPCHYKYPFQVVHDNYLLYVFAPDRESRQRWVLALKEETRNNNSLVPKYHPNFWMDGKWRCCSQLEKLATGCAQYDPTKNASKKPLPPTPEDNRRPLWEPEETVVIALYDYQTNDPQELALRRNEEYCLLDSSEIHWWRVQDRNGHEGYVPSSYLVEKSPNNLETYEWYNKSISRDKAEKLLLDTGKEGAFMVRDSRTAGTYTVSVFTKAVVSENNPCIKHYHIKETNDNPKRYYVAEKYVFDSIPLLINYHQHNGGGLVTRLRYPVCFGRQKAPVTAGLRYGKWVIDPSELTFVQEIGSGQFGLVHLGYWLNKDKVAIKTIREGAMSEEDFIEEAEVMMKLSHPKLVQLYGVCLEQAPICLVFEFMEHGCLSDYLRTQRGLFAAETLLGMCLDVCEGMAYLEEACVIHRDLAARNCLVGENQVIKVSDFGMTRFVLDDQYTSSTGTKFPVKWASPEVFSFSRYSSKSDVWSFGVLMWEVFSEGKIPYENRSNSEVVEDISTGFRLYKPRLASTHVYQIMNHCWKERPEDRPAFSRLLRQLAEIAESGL
Nature of the test: Inhibition of a panel of kinases, in vitro HotSpot kinase assay: ITK. The note with it: D-compounds panel data; 1 μM ATP. On the procedure:
(§1) The degree of inhibition of a panel of kinases is determined using the in vitro HotSpot kinase assay (purified enzymes, ^33P-ATP, an appropriate substrate and 1 μM ATP).

The target in a further test is LCK (Homo sapiens, UniProt P06239). In words: Inhibition of a panel of kinases, in vitro HotSpot kinase assay: LCK. The following applies: D-compounds panel data; 1 μM ATP; read-out: IC50 LCK.
Sequence of LCK (P06239 whole entry): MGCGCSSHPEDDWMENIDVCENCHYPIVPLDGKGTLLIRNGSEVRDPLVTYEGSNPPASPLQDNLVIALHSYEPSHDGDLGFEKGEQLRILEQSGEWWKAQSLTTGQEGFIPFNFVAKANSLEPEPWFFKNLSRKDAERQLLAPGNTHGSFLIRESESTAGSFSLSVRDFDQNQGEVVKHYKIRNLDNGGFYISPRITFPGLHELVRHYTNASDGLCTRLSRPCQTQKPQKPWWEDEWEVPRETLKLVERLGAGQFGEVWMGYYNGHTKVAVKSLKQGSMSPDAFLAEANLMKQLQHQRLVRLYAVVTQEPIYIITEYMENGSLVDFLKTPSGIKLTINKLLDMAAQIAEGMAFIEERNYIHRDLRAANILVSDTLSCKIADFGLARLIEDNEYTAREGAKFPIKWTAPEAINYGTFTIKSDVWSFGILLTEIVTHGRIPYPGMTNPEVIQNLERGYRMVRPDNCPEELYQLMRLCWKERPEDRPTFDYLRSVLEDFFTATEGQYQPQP
The next test concerns the target T2, TEC (Homo sapiens, UniProt P42680).
T2 sequence (P42680 1-631): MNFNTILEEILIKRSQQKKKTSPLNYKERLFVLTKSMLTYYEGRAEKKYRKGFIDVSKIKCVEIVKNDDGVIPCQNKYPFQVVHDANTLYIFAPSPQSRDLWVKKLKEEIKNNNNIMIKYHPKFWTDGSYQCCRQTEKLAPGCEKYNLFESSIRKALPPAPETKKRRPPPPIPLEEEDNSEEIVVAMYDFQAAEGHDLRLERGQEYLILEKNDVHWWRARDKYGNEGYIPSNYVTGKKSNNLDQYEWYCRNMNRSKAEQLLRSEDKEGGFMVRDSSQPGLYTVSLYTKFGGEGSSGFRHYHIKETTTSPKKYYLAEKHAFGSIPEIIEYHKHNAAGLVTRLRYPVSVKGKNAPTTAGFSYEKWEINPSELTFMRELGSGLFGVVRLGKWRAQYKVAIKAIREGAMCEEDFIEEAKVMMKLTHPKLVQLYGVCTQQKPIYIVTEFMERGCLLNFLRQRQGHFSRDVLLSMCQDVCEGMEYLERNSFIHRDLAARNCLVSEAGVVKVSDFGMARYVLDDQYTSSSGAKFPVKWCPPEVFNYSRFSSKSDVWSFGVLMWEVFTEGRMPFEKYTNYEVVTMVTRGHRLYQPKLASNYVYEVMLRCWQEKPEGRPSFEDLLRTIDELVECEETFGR
Nature of the test: Inhibition of a panel of kinases, in vitro HotSpot kinase assay: TEC. The note with it: D-compounds panel data; 1 μM ATP. As for the experimental part:
as §1

For orientation: IC50 means the concentration needed to halve the response being measured. With `CC(C)c1ccc(S(=O)(=O)N[C@@H]2CCCN(c3cnc(C(N)=O)c(Nc4cnn(C)c4)n3)[C@@H]2C)cc1` [Example D-220, 3-[(1-methyl-1H-pyrazol-4-yl)amino]-5-[(2R,3R)-2-methyl-3-[4-(propan-2-yl)benzenesulfonamido]piperidin-1-yl]pyrazine-2-carboxamide], the concentration for half-maximal inhibition (IC50) against ITK was greater than 10000 nM; on LCK, greater than 10000 nM; against TEC it was 1000 to 10000 nM.

Turning to `Cn1cc(Nc2nc(N3CCC[C@@H](NC(=O)c4ccc(C5CC5)cc4)C3)cnc2C(N)=O)cn1` [Example D-191, 5-[(3R)-3-(4-cyclopropylbenzamido)piperidin-1-yl]-3-[(1-methyl-1H-pyrazol-4-yl)amino]pyrazine-2-carboxamide], the IC50 against ITK lay in the range of 1000 to 10000 nM; at LCK it was 100 to 1000 nM; on TEC, 100 to 1000 nM.

On to `C[C@@H]1[C@H](NC(=O)c2ccc3scnc3c2)CCCN1c1cnc(C(N)=O)c(Nc2ccc(N3CCN(C)CC3)cc2)n1` [Example D-226, N-[(2R,3R)-1-(5-carbamoyl-6-{[4-(4-methylpiperazin-1-yl)phenyl]amino}pyrazin-2-yl)-2-methylpiperidin-3-yl]-1,3-benzothiazole-5-carboxamide], for which the IC50 is 10 to 100 nM on ITK, 10 to 100 nM on LCK and no more than 10 nM on TEC.

Consider `Cc1cc(Nc2nc(N3CCC[C@H](c4ncc(-c5ccccc5)[nH]4)C3)cnc2C(N)=O)sn1` [Example D-172, 3-[(3-methyl-1,2-thiazol-5-yl)amino]-5-[(3S)-3-(5-phenyl-1H-imidazol-2-yl)piperidin-1-yl]pyrazine-2-carboxamide], for which the IC50 against ITK was greater than 10000 nM; on LCK, 100 to 1000 nM; against TEC it was 100 to 1000 nM.

Consider `C[C@@H]1[C@H](NC(=O)c2ccc(C3(O)CCCC3)cc2)CCCN1c1cnc(C(N)=O)c(Nc2cnn(C)c2)n1` [Example D-212, 5-[(2R,3R)-3-[4-(1-hydroxycyclopentyl)benzamido]-2-methylpiperidin-1-yl]-3-[(1-methyl-1H-pyrazol-4-yl)amino]pyrazine-2-carboxamide], for which the IC50 against ITK is 100 to 1000 nM; at LCK it was 100 to 1000 nM; on TEC, no more than 10 nM.

Turning to `C[C@@H]1[C@H](NC(=O)c2ccc(C(C)(C)O)cc2)CCCN1c1cnc(C(N)=O)c(Nc2cnn(C)c2)n1` [Example D-194, 5-[(2R,3R)-3-[4-(2-hydroxypropan-2-yl)benzamido]-2-methylpiperidin-1-yl]-3-[(1-methyl-1H-pyrazol-4-yl)amino]pyrazine-2-carboxamide], the 50% inhibitory concentration (IC50) was 100 to 1000 nM on ITK, 100 to 1000 nM on LCK and no more than 10 nM on TEC.

In the case of `Cc1cc(Nc2nc(N3CCC[C@@H](c4ncc(-c5ccc(C6CC6)cc5)[nH]4)[C@H]3C)cnc2C(N)=O)sn1` [Example D-186, 5-[(2R,3R)-3-[5-(4-cyclopropylphenyl)-1H-imidazol-2-yl]-2-methylpiperidin-1-yl]-3-[(3-methyl-1,2-thiazol-5-yl)amino]pyrazine-2-carboxamide], the IC50 against ITK was greater than 10000 nM; at LCK, 1000 to 10000 nM; at TEC it was 100 to 1000 nM.

As for `Cc1cc(Nc2nc(N3CCC[C@@H](NC(=O)N4Cc5ccccc5C4=O)C3)cnc2C(N)=O)sn1` [Example D-15, N-[(3R)-1-{5-carbamoyl-6-[(3-methyl-1,2-thiazol-5-yl)amino]pyrazin-2-yl}piperidin-3-yl]-1-oxo-2,3-dihydro-1H-isoindole-2-carboxamide], the half-maximal inhibitory concentration (IC50) on ITK, at LCK and against TEC was 10 to 100 nM in each case.

As to `C[C@@H]1[C@H](NC(=O)c2ccc3c(c2)OC(F)(F)O3)CCCN1c1cnc(C(N)=O)c(Nc2cnn(C)c2)n1` [Example D-216, 5-[(2R,3R)-3-(2,2-difluoro-2H-1,3-benzodioxole-5-amido)-2-methylpiperidin-1-yl]-3-[(1-methyl-1H-pyrazol-4-yl)amino]pyrazine-2-carboxamide], the figures for the 50% inhibitory concentration (IC50) on ITK, on LCK and against TEC were 100 to 1000 nM, 100 to 1000 nM and no more than 10 nM, respectively.

`CC(C)c1ccc(C(=O)N[C@@H]2CCCN(c3cnc(C(N)=O)c(Nc4cnn(C)c4)n3)[C@@H]2C)cc1` [Example D-197, 3-[(1-methyl-1H-pyrazol-4-yl)amino]-5-[(2R,3R)-2-methyl-3-[4-(propan-2-yl)benzamido]piperidin-1-yl]pyrazine-2-carboxamide]: the IC50 on ITK was in the range of 100 to 1000 nM; on LCK it was 100 to 1000 nM; against TEC, 10 to 100 nM.

For `C[C@@H]1[C@H](NC(=O)c2ccc(C(O)(C(F)(F)F)C(F)(F)F)cc2)CCCN1c1cnc(C(N)=O)c(Nc2cnn(C)c2)n1` [Example D-240, 5-[(2R,3R)-3-[4-(1,1,1,3,3,3-hexafluoro-2-hydroxypropan-2-yl)benzamido]-2-methylpiperidin-1-yl]-3-[(1-methyl-1H-pyrazol-4-yl)amino]pyrazine-2-carboxamide], the 50% inhibitory concentration (IC50) at ITK was in the range of 100 to 1000 nM; on LCK, 100 to 1000 nM; against TEC, 10 to 100 nM.

`C[C@@H]1[C@H](NC(=O)c2ccc(C3CC3)cc2F)CCCN1c1cnc(C(N)=O)c(Nc2ccc(N3CCN(C)CC3)nc2)n1` [Example D-13, 5-[(2R,3R)-3-(4-cyclopropyl-2-fluorobenzamido)-2-methylpiperidin-1-yl]-3-{[6-(4-methylpiperazin-1-yl)pyridin-3-yl]amino}pyrazine-2-carboxamide]: the 50% inhibitory concentration (IC50) was 1000 to 10000 nM on ITK, 100 to 1000 nM on LCK and 100 to 1000 nM at TEC.

As to `Cn1cc(Nc2nc(N3CCC(F)(F)[C@H](NC(=O)c4ccc(C5CC5)cc4)C3)cnc2C(N)=O)cn1` [Example D-192, 5-[(3R)-3-(4-cyclopropylbenzamido)-4,4-difluoropiperidin-1-yl]-3-[(1-methyl-1H-pyrazol-4-yl)amino]pyrazine-2-carboxamide], the IC50 against ITK is 1000 to 10000 nM; on LCK, greater than 10000 nM; against TEC it was 1000 to 10000 nM.

On to `C[C@H]1CC[C@@H](NC(=O)c2ccc(C(C)(C)O)cc2)CN1c1cnc(C(N)=O)c(Nc2cnn(C)c2)n1` [Example D-236, 5-[(2S,5R)-5-[4-(2-hydroxypropan-2-yl)benzamido]-2-methylpiperidin-1-yl]-3-[(1-methyl-1H-pyrazol-4-yl)amino]pyrazine-2-carboxamide], for which the half-maximal inhibitory concentration (IC50) at ITK is 100 to 1000 nM; at LCK it was 10 to 100 nM; against TEC, no more than 10 nM.

`Cn1cc(Nc2nc(N3CCC[C@@H](n4ccc5cc(C6CC6)ccc5c4=O)C3)nnc2C(N)=O)cn1` [Example D-206, 3-[(3R)-3-(6-cyclopropyl-1-oxo-1,2-dihydroisoquinolin-2-yl)piperidin-1-yl]-5-[(1-methyl-1H-pyrazol-4-yl)amino]-1,2,4-triazine-6-carboxamide]: the results for the half-maximal inhibitory concentration (IC50) at ITK, on LCK and at TEC were 100 to 1000 nM, 10 to 100 nM and no more than 10 nM, respectively.

`C[C@@H]1[C@H](NC(=O)c2ccc(N(C)C)cc2)CCCN1c1cnc(C(N)=O)c(Nc2ccc(C3(C)CCN(C4CCCC4)CC3)cc2)n1` [Example D-183, 3-{[4-(1-cyclopentyl-4-methylpiperidin-4-yl)phenyl]amino}-5-[(2R,3R)-3-[4-(dimethylamino)benzamido]-2-methylpiperidin-1-yl]pyrazine-2-carboxamide]: the half-inhibitory concentration (IC50) against ITK, on LCK and against TEC was 10 to 100 nM throughout.

For `Cn1cc(Nc2nc(N3C4CCC(NC(=O)c5ccc(C6CC6)cc5)C3CC4)cnc2C(N)=O)cn1` (single isomer, unassigned) [Example D-199, 5-[2-(4-cyclopropylbenzamido)-8-azabicyclo[3.2.1]octan-8-yl]-3-[(1-methyl-1H-pyrazol-4-yl)amino]pyrazine-2-carboxamide], the values for the half-maximal inhibitory concentration (IC50) against ITK, on LCK and against TEC were greater than 10000 nM, greater than 10000 nM and 1000 to 10000 nM, respectively.

As for `Cn1cc(Nc2nc(N3CCC(F)(F)[C@@H](NC(=O)c4ccc(C5CC5)cc4)C3)cnc2C(N)=O)cn1` [Example D-193, 5-[(3S)-3-(4-cyclopropylbenzamido)-4,4-difluoropiperidin-1-yl]-3-[(1-methylpyrazol-4-yl)amino]pyrazine-2-carboxamide], the values for the half-inhibitory concentration (IC50) at ITK, at LCK and against TEC were greater than 10000 nM, greater than 10000 nM and 100 to 1000 nM, respectively.
